Measurements as given in patent US20240368181A1, “QUINOXALINE DERIVATIVES AND USES THEREOF” (Black Diamond Therapeutics, Inc., priority 2021, published 2024).

Tests used:
Format in all cases: cell-based
[1] = test system: RT-112 (FGFR3-Tacc3 fusion) cells; experiment: cell proliferation assay (CellTiterGlo), RT-112 cells; conditions: 72 hours
Source text: (§1) In some embodiments, the biological assay assess the ability of the compounds to inhibit cell proliferation.
(§2) In some embodiments, cells (e.g., SNU-16 (FGFR2-amplification) cells) may be suspended and dispensed in plates. In some embodiments, cells (e.g., UM-UC-14 (FGFR3-S249C) cells) may be suspended and dispensed in plates. In some embodiments, cells (e.g., DMS-114 (FGFR1 overexpression) cells) may by suspended and dispensed in plates. In some embodiments, cells (e.g., RT-112 (FGFR3-Tacc3 fusion) cells) may be suspended and dispensed in plates. In some embodiments, to determine the effect of the compounds of the present disclosure on cell proliferation, cells (e.g., SNU-16, UM-UC-14, DMS-114 and […] cells) may be incubated in the presence of vehicle control (e.g., DMSO) or a compound of the present disclosure at varying concentrations and the inhibition of cell growth may be determined by luminescent quantification (e.g., of intracellular ATP content using CellTiterGlo), according to the manufacturers protocol. In some embodiments, to determine the IC50 values, the vehicle-treated cells were normalized as viable cells and the growth was analyzed using a software (e.g., the CDD Vault software (Collaborative Drug Discovery, Burlingame, CA)).

[2] = test system: UM-UC-14 (FGFR3-S249C) cells; experiment: cell proliferation assay (CellTiterGlo), UM-UC-14 cells
Source text: as §1, §2

[3] = test system: SNU-16 (FGFR2-amplification) cells; experiment: cell proliferation assay (CellTiterGlo), SNU-16 cells; conditions: 72 hours
Source text: as §1, §2

[4] = test system: DMS-114 (FGFR1 overexpression) cells; experiment: cell proliferation assay (CellTiterGlo), DMS-114 cells
Source text: as §1, §2

[5] = Homo sapiens, RT-112, RT112 cells

| SMILES | IC50 [1, 5] | IC50 ([2]; UMUC14, 72 h) | IC50 ([3]; Homo sapiens) | IC50 ([4]; Homo sapiens, DMS-114, 72 h) | IC50 ([4]; 72 hours) | IC50 ([1]; RT112 cells) | IC50 ([2]; 72 hours) | IC50 [3] |
| --- | --- | --- | --- | --- | --- | --- | --- | --- |
| Cc1nc2ccc(Oc3ccc4ncc(-c5cnn(CC6CC(F)(F)C6)c5)nc4c3C3=CC(C)(C)OC3(C)C)c(F)c2[nH]1 [Compound 88] | 20 to 100 nM | 20 to 100 nM | 20 to 100 nM | 100 to 400 nM |  |  |  |  |
| Cc1nc2ccc(Oc3ccc4ncc(-c5cnn(CC6CC(F)(F)C6)c5)nc4c3C3=CCOC3)c(F)c2[nH]1 [Compound 89] | 20 to 100 nM | 20 to 100 nM | < 20 nM | 100 to 400 nM |  |  |  |  |
| Cc1nc2ccc(Oc3ccc4ncc(-c5cnn(CC6CC(F)(F)C6)c5)nc4c3C3=CC(C)(C)OC3(C)C)cc2[nH]1 [Compound 90] | 20 to 100 nM | 20 to 100 nM | 20 to 100 nM | 100 to 400 nM |  |  |  |  |
| Cc1nc2ccc(Oc3ccc4ncc(-c5cnn(CC6CC(F)(F)C6)c5)nc4c3C3=CCCOC3)cc2[nH]1 [Compound 91] | 20 to 100 nM | 20 to 100 nM | 20 to 100 nM | ≥ 400 nM |  |  |  |  |
| Cc1nc2ccc(Oc3ccc4ncc(-c5cnn(CCC(F)F)c5)nc4c3Cl)cc2[nH]1 [Compound 92] | 100 to 400 nM | 100 to 400 nM | 100 to 400 nM | ≥ 400 nM |  |  |  |  |
| Cc1nc2ccc(Oc3ccc4ncc(-c5cnn(CC6(N)CC6)c5)nc4c3Cl)cc2[nH]1 [Compound 93] | 100 to 400 nM | 20 to 100 nM | 100 to 400 nM | ≥ 400 nM |  |  |  |  |
| Cc1nc2ccc(Oc3ccc4ncc(-c5cnn(CC6CC(F)(F)C6)c5)nc4c3C3CCOCC3)cc2[nH]1 [Compound 94] | ≥ 400 nM | ≥ 400 nM | ≥ 400 nM | ≥ 400 nM |  |  |  |  |
| Cc1nc2ccc(Oc3ccc4ncc(-c5cnn(CC6CC(F)(F)C6)c5)nc4c3N3CCOC3=O)c(F)c2[nH]1 [Compound 95] | 100 to 400 nM | ≥ 400 nM | 100 to 400 nM | ≥ 400 nM |  |  |  |  |
| Cc1nc2ccc(Oc3ccc4ncc(-c5cnn(CC6CC(F)(F)C6)c5)nc4c3C3COC3)cc2[nH]1 [Compound 97] | 100 to 400 nM | 100 to 400 nM | 20 to 100 nM | ≥ 400 nM |  |  |  |  |
| CC(=O)NC1(Cn2cc(-c3cnc4ccc(Oc5ccc6nc(C)[nH]c6c5)c(Cl)c4n3)cn2)CC1 [Compound 98] | 100 to 400 nM | ≥ 400 nM | 100 to 400 nM | ≥ 400 nM |  |  |  |  |
| Cc1nc2ccc(Oc3ccc4ncc(-c5cnn(CC6(NS(C)(=O)=O)CC6)c5)nc4c3Cl)cc2[nH]1 [Compound 99] | 100 to 400 nM | ≥ 400 nM | 100 to 400 nM | ≥ 400 nM |  |  |  |  |
| Cc1nc2ccc(Oc3ccc4ncc(-c5cnn(CC6CC(F)(F)C6)c5)nc4c3C3=CCOCC3)cc2[nH]1 [Compound 100] | < 20 nM | 20 to 100 nM | 20 to 100 nM | 100 to 400 nM |  |  |  |  |
| Cc1nc2ccc(Oc3ccc4ncc(-c5cnn([C@@H](C)CO)c5)nc4c3Cl)c(F)c2[nH]1 [Compound 106] | < 20 nM | < 20 nM | < 20 nM | 100 to 400 nM |  |  |  |  |
| Cc1nc2ccc(Oc3ccc4ncc(-c5cnn([C@H](C)CO)c5)nc4c3Cl)c(F)c2[nH]1 [Compound 107] | < 20 nM | < 20 nM | < 20 nM | 100 to 400 nM |  |  |  |  |
| Cc1nc2ccc(Oc3ccc4ncc(-c5cnn([C@@H](C)C6CC(F)(F)C6)c5)nc4c3Cl)c(F)c2[nH]1 [Compound 108] | 20 to 100 nM | 20 to 100 nM | < 20 nM | 100 to 400 nM |  |  |  |  |
| Cc1nc2ccc(Oc3ccc4ncc(-c5cnn([C@H](C)C6CC(F)(F)C6)c5)nc4c3Cl)c(F)c2[nH]1 [Compound 109] | < 20 nM | < 20 nM | < 20 nM | 100 to 400 nM |  |  |  |  |
| COC1(Cn2cc(-c3cnc4ccc(Oc5ccc6nc(C)[nH]c6c5)c(Cl)c4n3)cn2)CC1 [Compound 110] | 20 to 100 nM | 20 to 100 nM | 20 to 100 nM | ≥ 400 nM |  |  |  |  |
| Cc1nc2ccc(Oc3ccc4ncc(-c5cnn(Cc6nnc(C)o6)c5)nc4c3Cl)cc2[nH]1 [Compound 111] | 20 to 100 nM | 20 to 100 nM | 20 to 100 nM | ≥ 400 nM |  |  |  |  |
| COC(=O)C(C)(C)n1cc(-c2cnc3ccc(Oc4ccc5nc(C)[nH]c5c4F)c(Cl)c3n2)cn1 [Compound 112] | 20 to 100 nM | < 20 nM | < 20 nM | 100 to 400 nM |  |  |  |  |
| Cc1nc2ccc(Oc3ccc4ncc(-c5cnn(C(C)(C)C(=O)O)c5)nc4c3Cl)c(F)c2[nH]1 [Compound 115] | ≥ 400 nM | ≥ 400 nM | ≥ 400 nM | ≥ 400 nM |  |  |  |  |
| Cc1nc2ccc(Oc3ccc4ncc(-c5cnn(C[C@H](C)O)c5)nc4c3Cl)cc2[nH]1 [Compound 119] | 20 to 100 nM | < 20 nM | 20 to 100 nM | 100 to 400 nM |  |  |  |  |

| SMILES | IC50 [1, 5] | IC50 ([2]; UMUC14, 72 h) | IC50 ([3]; Homo sapiens) | IC50 ([4]; Homo sapiens, DMS-114, 72 h) | IC50 ([4]; 72 hours) | IC50 ([1]; RT112 cells) | IC50 ([2]; 72 hours) | IC50 [3] |
| --- | --- | --- | --- | --- | --- | --- | --- | --- |
| Cc1nc2ccc(Oc3ccc4ncc(-c5cnn(C6CCN(CC(F)(F)F)C7(CC7)C6)c5)nc4c3Cl)c(F)c2[nH]1 (centres unmarked) [Compound 121] | 20 to 100 nM | 20 to 100 nM | 20 to 100 nM | ≥ 400 nM |  |  |  |  |
| Cc1nc2ccc(Oc3ccc4ncc(-c5cnn(CC(C)(O)C(F)(F)F)c5)nc4c3Cl)c(F)c2[nH]1 (centres unmarked) [Compound 122] | 20 to 100 nM | 20 to 100 nM | 20 to 100 nM | ≥ 400 nM |  |  |  |  |
| Cc1nc2ccc(Oc3ccc4ncc(-c5cnn([C@H]6CC7(C[C@@H](O)C7)C6)c5)nc4c3Cl)cc2[nH]1 (some centres unmarked) [Compound 123] | 20 to 100 nM | < 20 nM | 20 to 100 nM |  | 100 to 400 nM |  |  |  |
| Cc1nc2ccc(Oc3ccc4ncc(-c5cnn([C@H]6CC7(C[C@@H](O)C7)C6)c5)nc4c3Cl)cc2[nH]1 (some centres unmarked) [Compound 124] |  |  |  |  | ≥ 400 nM | 20 to 100 nM | 20 to 100 nM | 20 to 100 nM |
| Cc1nc2ccc(Oc3ccc4ncc(-c5cnn([C@H](C)CO)c5)nc4c3Cl)cc2[nH]1 [Compound 126] | 20 to 100 nM | 20 to 100 nM | 20 to 100 nM | 100 to 400 nM |  |  |  |  |
| Cc1nc2ccc(Oc3ccc4ncc(-c5cnn([C@H]6CC7(C[C@@H](O)C7)C6)c5)nc4c3Cl)c(F)c2[nH]1 (some centres unmarked) [Compound 127] | < 20 nM | < 20 nM | < 20 nM | 100 to 400 nM |  |  |  |  |
| Cc1nc2ccc(Oc3ccc4ncc(-c5cnn([C@H]6CC7(C[C@@H](O)C7)C6)c5)nc4c3Cl)c(F)c2[nH]1 (some centres unmarked) [Compound 128] |  |  |  |  | 100 to 400 nM | < 20 nM | < 20 nM | < 20 nM |
| Cc1nc2ccc(Oc3ccc4ncc(-c5cnn(C[C@@H](C)O)c5)nc4c3Cl)c(F)c2[nH]1 [Compound 130] | < 20 nM | < 20 nM | < 20 nM | 100 to 400 nM |  |  |  |  |
| Cc1nc2ccc(Oc3ccc4ncc(-c5cnn(CC(C)(C)O)c5)nc4c3Cl)c(F)c2[nH]1 [Compound 131] | < 20 nM | < 20 nM | < 20 nM | 100 to 400 nM |  |  |  |  |
| Cc1nc2ccc(Oc3ccc4ncc(-c5cnn(C6CCNC7(CC7)C6)c5)nc4c3Cl)c(F)c2[nH]1 (centres unmarked) [Compound 139] | < 20 nM | 20 to 100 nM | < 20 nM | 20 to 100 nM |  |  |  |  |
| Cc1nc2ccc(Oc3ccc4ncc(-c5cnn(CC6(O)CCC6)c5)nc4c3Cl)c(F)c2[nH]1 [Compound 140] | 20 to 100 nM | 20 to 100 nM | 20 to 100 nM | ≥ 400 nM |  |  |  |  |
| Cc1nc2ccc(Oc3ccc4ncc(-c5cnn(C(=O)OC(C)C)c5)nc4c3Cl)c(F)c2[nH]1 [Compound 141] | 100 to 400 nM | 100 to 400 nM | 20 to 100 nM | ≥ 400 nM |  |  |  |  |
| Cc1nc2ccc(Oc3ccc4ncc(-c5cnn([C@H]6C[C@H](O)C6)c5)nc4c3Cl)c(F)c2[nH]1 [Compound 143] | 100 to 400 nM | ≥ 400 nM | 100 to 400 nM | ≥ 400 nM |  |  |  |  |
| Cc1nc2ccc(Oc3ccc4ncc(-c5cnn(CC(O)C(F)(F)F)c5)nc4c3Cl)c(F)c2[nH]1 (centres unmarked) [Compound 144] | 100 to 400 nM | ≥ 400 nM | 20 to 100 nM | ≥ 400 nM |  |  |  |  |
| Cc1nc2ccc(Oc3ccc4ncc(-c5cnn(Cc6ncc7n6CCOC7)c5)nc4c3Cl)c(F)c2[nH]1 [Compound 145] | 100 to 400 nM | ≥ 400 nM | 20 to 100 nM | ≥ 400 nM |  |  |  |  |
| Cc1nc2ccc(Oc3ccc4ncc(-c5cnn(CC6(O)CCC6)c5)nc4c3Cl)cc2[nH]1 [Compound 146] | 20 to 100 nM | 20 to 100 nM | 20 to 100 nM | ≥ 400 nM |  |  |  |  |
| Cc1nc2ccc(Oc3ccc4ncc(-c5cnn(C(C)(C)C6CC(F)(F)C6)c5)nc4c3Cl)cc2[nH]1 [Compound 147] | 20 to 100 nM | 100 to 400 nM | 100 to 400 nM | ≥ 400 nM |  |  |  |  |
| Cc1nc2ccc(Oc3ccc4ncc(-c5cnn([C@H]6C[C@@H](O)C6)c5)nc4c3Cl)c(F)c2[nH]1 [Compound 148] | < 20 nM | < 20 nM | < 20 nM | 20 to 100 nM |  |  |  |  |
| Cc1nc2ccc(Oc3ccc4ncc(-c5cnn([C@H]6C[C@](C)(O)C6)c5)nc4c3Cl)c(F)c2[nH]1 [Compound 149] | < 20 nM | < 20 nM | < 20 nM | 100 to 400 nM |  |  |  |  |
| Cc1nc2ccc(Oc3ccc4ncc(-c5cnn(C(C)(C)C6CC(=O)C6)c5)nc4c3Cl)cc2[nH]1 [Compound 150] | 20 to 100 nM | 20 to 100 nM | 20 to 100 nM | ≥ 400 nM |  |  |  |  |
